≈ marks a conversion by molar mass, not a printed value. Residues, ends and D or L forms follow the SMILES beside them.
What was measured:
[1] = tested on: Bacillus subtilis (ATCC 6633); experiment: microbe, parasite or virus in culture; type: cell-based; conditions: Bacillus subtilis (ATCC 6633); averages of three repeats; read-out: Minimum inhibitory concentration (MIC)
Method: (§1) Antibacterial assay against various Gram-positive and Gram-negative strains of bacteria was performed by the serial two-fold dilution method according to the previously reported procedure, [36]. The antibacterial assays were repeated thrice and the averages of these MIC values were reported.

[2] = tested on: Escherichia coli (ATCC 25922); experiment: microbe, parasite or virus in culture; type: cell-based; conditions: Escherichia coli (ATCC 25922); averages of three repeats; read-out: Minimum inhibitory concentration (MIC)
Method: as §1

[3] = tested on: Escherichia coli (ATCC 9637); experiment: microbe, parasite or virus in culture; type: cell-based; conditions: Escherichia coli (ATCC 9637); averages of three repeats; read-out: Minimum inhibitory concentration (MIC)
Method: as §1

[4] = tested on: Klebsiella pneumoniae (ATCC 27736); experiment: microbe, parasite or virus in culture; type: cell-based; conditions: Klebsiella pneumoniae (ATCC 27736); averages of three repeats; read-out: Minimum inhibitory concentration (MIC)
Method: as §1

[5] = tested on: Pseudomonas aeruginosa (ATCC BAA-427); experiment: microbe, parasite or virus in culture; type: cell-based; conditions: Pseudomonas aeruginosa (ATCC BAA-427); averages of three repeats; read-out: Minimum inhibitory concentration (MIC)
Method: as §1

[6] = tested on: Staphylococcus aureus (ATCC 25923); experiment: microbe, parasite or virus in culture; type: cell-based; conditions: Staphylococcus aureus (ATCC 25923); averages of three repeats; read-out: Minimum inhibitory concentration (MIC)
Method: as §1

[7] = tested on: Staphylococcus aureus (ATCC 29213); experiment: microbe, parasite or virus in culture; type: cell-based; conditions: Staphylococcus aureus (ATCC 29213); averages of three repeats; read-out: Minimum inhibitory concentration (MIC)
Method: as §1

[8] = tested on: Staphylococcus aureus (ATCC 33592) Methicillin resistant Genatmicin resistant; experiment: microbe, parasite or virus in culture; type: cell-based; conditions: Staphylococcus aureus (ATCC 33592), methicillin and gentamicin resistant; averages of three repeats; read-out: Minimum inhibitory concentration (MIC)
Method: as §1

[9] = tested on: Staphylococcus aureus (ATCC 700698 MRSA); experiment: microbe, parasite or virus in culture; type: cell-based; conditions: Staphylococcus aureus (ATCC 700698 MRSA); averages of three repeats; read-out: Minimum inhibitory concentration (MIC)
Method: as §1

[10] = tested on: Staphylococcus aureus (ATCC 700699 MRSA); experiment: microbe, parasite or virus in culture; type: cell-based; conditions: Staphylococcus aureus (ATCC 700699 MRSA); averages of three repeats; read-out: Minimum inhibitory concentration (MIC)
Method: as §1

[11] = tested on: Staphylococcus aureus (BAA-44)MDR; experiment: microbe, parasite or virus in culture; type: cell-based; conditions: Staphylococcus aureus (BAA-44) MDR; averages of three repeats; read-out: Minimum inhibitory concentration (MIC)
Method: as §1

[12] = tested on: Candida albicans (ATCC 10231); experiment: microbe, parasite or virus in culture; type: cell-based; conditions: Candida albicans (ATCC 10231); NCCLS micro broth dilution, 35 °C, 48 h, absorbance 492 nm; read-out: Minimum inhibitory concentration (MIC)
Method: (§2) The anti- fungal activity of peptides was performed according to the standard micro broth dilution technique as per NCCLS guidelines. These plates were incubated in a moist chamber at 35 °C, and an absorbance at 492 nm was recorded on a VersaMax microplate reader after 48 h for C. albicans ATCC 10231 and C. parapsilosis ATCC 22019 and 72 h for C. neoformans.

[13] = tested on: Candida parapsilosis (ATCC 22019); experiment: microbe, parasite or virus in culture; type: cell-based; conditions: Candida parapsilosis (ATCC 22019); NCCLS micro broth dilution, 35 °C, 48 h, absorbance 492 nm; read-out: Minimum inhibitory concentration (MIC)
Method: as §2

[14] = tested on: Cryptococcus neoformans; experiment: microbe, parasite or virus in culture; type: cell-based; conditions: Cryptococcus neoformans; NCCLS micro broth dilution, 35 °C, 72 h, absorbance 492 nm; read-out: Minimum inhibitory concentration (MIC)
Method: as §2

[15] = tested on: Sporothrix schenckii (Patient isolates); experiment: microbe, parasite or virus in culture; type: cell-based; conditions: Sporothrix schenckii (patient isolates); NCCLS micro broth dilution, 35 °C; read-out: Minimum inhibitory concentration (MIC)
[16] = tested on: E. coli (ATCC 25922); type: cell-based, Escherichia coli; conditions: E. coli (ATCC 25922)
Method: (§3) E. coli ATCC25922 was grown to 10^6 CFU/ml in fresh MH broth with various divalent and monovalent salts at their physiological concentrations. Serial dilutions of chrysophsin-1 and its variants prepared with the same MH broth were added to the E. coli ATCC 25922 suspensions. The bacteria were incubated at 37 °C in a shaking incubator for 18 h and the MIC values of individual peptides against E. coli ATCC 25922 were determined. Thermal tolerance of Chrysophsin-1 and its variants was checked by incubating the peptides at 4 °C, 60 °C and 90 °C for 1 h prior to MIC determination. The antibacterial activity in presence of serum was carried out by adding a final concentration of 10% fetal bovine serum in the assay diluents containing 0.4% BSA, 0.02% glacial acetic acid. The subsequent steps in both the experiments were consistent with the MIC determination method.

[17] = tested on: E. coli ATCC 25922; type: cell-based, Escherichia coli; conditions: E. coli ATCC 25922
Method: as §3

[18] = tested on: S. aureus (ATCC 25923); type: cell-based, Staphylococcus aureus; conditions: S. aureus (ATCC 25923)
Method: as §3

[19] = tested on: E. coli ATCC 25922; experiment: Synergy with conventional antibiotics, checkerboard titration; type: cell-based, Escherichia coli
Method: The checkerboard titration method was followed to check the synergy of peptides with other antibiotics. First, 2-fold serial dilutions of the antibiotics and antimicrobial peptides were prepared. Subsequently, 50 μl each of different concentrations of antibiotics and of antimicrobial peptides was mixed and added into 100 μl of log phase bacteria culture in a 96-well plate. The plates were then incubated at 37 °C for 24 h. The fractional inhibitory concentration (FIC) index (FICI) was calculated as follows[39]: FICI=(MICofdrugAincombination)/(MICofdrugAalone)+(MICofdrugBincombination)/(MICofdrugB): FICI < 0.5 is considered to indicate synergy; 0.5 < FICI < 1.0 is considered additive; 1.0 < FICI < 4.0 is considered indifferent; and FICI > 4.0 is considered antagonism.

[20] = peptide incubated 1 h at 4 °C prior to MIC determination
[21] = peptide incubated 1 h at 60 °C prior to MIC determination
[22] = peptide incubated 1 h at 90 °C prior to MIC determination

CC[C@H](C)[C@H](NC(=O)[C@H](C)NC(=O)[C@H](CCCCN)NC(=O)CNC(=O)[C@H](C)NC(=O)[C@H](Cc1c[nH]cn1)NC(=O)[C@@H](NC(=O)[C@H](C)NC(=O)CNC(=O)[C@H](CCCCN)NC(=O)[C@@H](NC(=O)[C@H](CC(C)C)NC(=O)[C@H](Cc1c[nH]c2ccccc12)NC(=O)CNC(=O)[C@H](Cc1ccccc1)NC(=O)[C@@H](N)Cc1ccccc1)[C@@H](C)CC)[C@@H](C)CC)C(=O)N[C@@H](Cc1c[nH]cn1)C(=O)NCC(=O)N[C@@H](CC(C)C)C(=O)N[C@H](C(=O)N[C@@H](Cc1c[nH]cn1)C(=O)N[C@@H](CCCNC(=N)N)C(=O)N[C@@H](CCCNC(=N)N)C(=O)N[C@@H](CCCNC(=N)N)C(=O)N[C@@H](Cc1c[nH]cn1)C(N)=O)[C@@H](C)CC [Chr-1, reference compound] (H-FFGWLIKGAIHAGKAIHGLIHRRRH-NH2; N-terminus assumed) showed an MIC [1] of 6 µM (≈ 17.3 µg/mL), an MIC [2] of 3 µM (≈ 8.67 µg/mL) and an MIC [3] of 3.4 µM (≈ 9.83 µg/mL). It also gave an MIC [4] of 3 µM (≈ 8.67 µg/mL), an MIC [5] of 6.8 µM (≈ 19.7 µg/mL) and an MIC [6] of 3 µM (≈ 8.67 µg/mL). For the same compound, the MIC [7] was 1.6 µM (≈ 4.63 µg/mL), the MIC [8] was 1.6 µM (≈ 4.63 µg/mL) and the MIC [9] was 3 µM (≈ 8.67 µg/mL). It also gave an MIC [10] of 1.6 µM (≈ 4.63 µg/mL), an MIC [11] of 1.6 µM (≈ 4.63 µg/mL) and an MIC [12] of 6.8 µM (≈ 19.7 µg/mL). The MIC [13] was 3 µM (≈ 8.67 µg/mL), the MIC [14] was 3 µM (≈ 8.67 µg/mL) and the MIC [15] was 13.6 µM (≈ 39.3 µg/mL). For the same compound, the “Antibacterial activity (MIC) after incubating peptide at 4 °C” value [16, 20] was 3 µM, the “Antibacterial activity (MIC) after incubating peptide at 60 °C” value [16, 21] was 8.3 µM and the “Antibacterial activity (MIC) after incubating peptide at 90 °C” value [16, 22] was 8.6 µM. The “Antibacterial activity (MIC) in the presence of 10% FBS” value ([17]; 10% fetal bovine serum in assay diluent with 0.4% BSA, 0.02% glacial acetic acid) was 17.2 µM, the “Antibacterial activity (MIC) in the presence of FeCl3” value ([17]; FeCl3 4 μM in MH broth, 37 °C, 18 h) was 4.3 µM and the “Antibacterial activity (MIC) in the presence of KCl” value ([17]; KCl 4.5 mM in MH broth, 37 °C, 18 h) was 4.3 µM. The “Antibacterial activity (MIC) in the presence of MgCl2” value ([17]; MgCl2 1 mM in MH broth, 37 °C, 18 h) was 8.6 µM, the “Antibacterial activity (MIC) in the presence of NH4Cl” value ([17]; NH4Cl 6 μM in MH broth, 37 °C, 18 h) was 4.3 µM and the “Antibacterial activity (MIC) in the presence of NaCl” value ([17]; NaCl 150 mM in MH broth, 37 °C, 18 h) was 8.3 µM. For the same compound, the “Antibacterial activity (MIC) in the presence of ZnCl2” value ([17]; ZnCl2 8 μM in MH broth, 37 °C, 18 h) was 4.3 µM, the “Antibacterial activity (MIC) after incubating peptide at 4 °C” value [18, 20] was 3 µM and the “Antibacterial activity (MIC) after incubating peptide at 60 °C” value [18, 21] was 12.6 µM. For the same compound, the “Antibacterial activity (MIC) after incubating peptide at 90 °C” value [18, 22] was 16.6 µM and the “interaction of peptide with chloramphenicol (by FICI)” value [19] was “synergy (FICI < 0.5 is considered to indicate synergy)”.
